Test results from patent US10548829B2, “Oral care compositions and methods of use” (priority 2016, dated 2020).

What was measured:
S. gordonii/A. viscosus = test: Growth inhibition (OD610), co-culture; format: cell-based, S. gordonii and A. viscosus
Description: (§1) Further characterization was performed on planktonic oral microbes; Streptococcus sobrinus (Cariongenic—strain-SL1[CCM 6070, CNCTC 9/89] (ATCC cat. #33478), Streptococcus gordonii (Arginolytic—strain V288 (ATCC cat. #35105), Actinomyces viscosus) as well late colonizer (Gram −), pathogenic Aggregatibacter actinomycetemcomitans. All microbes were grown in their respective culture media: Streptococcus sobrinus and Streptococcus gordonii in BHI broth (BD, cat #237500), Aggregatibacter actinomycetemcomitans in BHI broth supplemented with 0.5% Yeast Extract (BD, cat #210941) and Actinomyces viscosus in Trypticase Soy Broth (BD, cat #211768) supplemented with 0.5% Yeast Extract (BD, cat #210941). Bacteria were cultured overnight in 37° C., 5% CO2 in approximately 20 ml of the appropriate culture broth. The following day, the OD610 was determined and solutions were diluted to 0.2 for the assay.
(§2) Test samples (Naringin, Naringin:Zinc complex and Naringin+Zinc Acetate (combination)) were prepared as a 100 mM stock solution followed by 2 fold serial dilution in 100% DMSO. Triclosan (positive control) was prepared as a 10% stock in 100% EtOH and 3 fold serial dilutions were done in 100% EtOH. […]
(§3) After approximately 12-13 hours of treatment, the plate was read at 610 nm using an Envision plate reader (PerkinElmer, Waltham, Mass.). The % inhibition relative to control was determined as follows: […]

[1] = tested on: A. actinomycetemcomitans/A. viscosus; test: Growth inhibition (OD610), co-culture; format: cell-based, A. actinomycetemcomitans and A. viscosus
Description: as §1, §2, §3

HaCaT cells = test: Scratch assay, cell migration/proliferation "wound healing"; format: cell-based, human; conditions: 0.1 mM in 1% DMSO complete media
Description: Cell Culture: Spontaneously immortalized human keratinocyte line, HaCaT cells (AddexBio, San Diego, Calif., cat # T0020001) were cultured in 25 cm^2 vented, Falcon canted tissue culture flasks (VWR, Radnor, Pa., cat #353108) using complete DMEM media (Life Technologies, Grand Island, N.Y., cat #11965-092) supplemented with 10% characterized Hyclone FBS (VWR, Radnor, Pa., cat #1677-014) and 1× Penicillin—Streptomycin (Life Technologies, Grand Island, N.Y., cat #15140122). The cultures were incubated at 37° C. and 5% CO2 until the cells reached around 70-80% confluence. […]
Assay sample preparation: Samples were prepared in a final concentration of 1% DMSO in complete media. […] Two different batches of product 5 were tested at 0.15 mM, the average % Growth Relative to day 0 (d0) was determined and presented in FIG. 20. […]
Quantifying cell migration/wound healing: To explore the effects of various actives on cell migration/wound healing, the size of the freshly generated wound (the gap size) was determined following treatment using an inverted microscope (Olympus 1X71, Olympus Scientific Solutions Americas, Waltham, Mass.) and Cellsens Dimension 1.11 (Olympus Corporation, Waltham, Mass.) software and monitored until the gap closed completely. […] The mean of each arm was determined for each day of the study until the wound heal and no gap existed. […]

[2] = 0.5 mM (combination 0.5 mM total)

Row | SMILES | % Inhibition (S. gordonii/A. viscosus; 0.175 mM) | % Inhibition ([1]; 0.175 mM) | wound healing, % growth relative to d0 (in words) (HaCaT cells) | inhibition at 500 µM (S. gordonii/A. viscosus; [2]) | inhibition at 500 µM [1, 2]
1 | CC(=O)[O-].CC(=O)[O-].[Zn+2] [Zinc Acetate alone, Zinc (II) Acetate] | −0.74 ± 6.34% | 4.13 ± 6.89% |  |  | 
2 | C[C@@H]1O[C@@H](O[C@H]2[C@H](Oc3cc(O)c4c(c3)O[C@H](c3ccc(O)cc3)CC4=O)O[C@H](CO)[C@@H](O)[C@@H]2O)[C@H](O)[C@H](O)[C@H]1O [Naringin] |  |  | not significantly different from that of Zinc acetate | -2.39 ± 5.68% | -0.03 ± 2.02%
